Source: ChEMBL document CHEMBL5137017, “Identification of NVP-CLR457 as an Orally Bioavailable Non-CNS-Penetrant pan-Class IA Phosphoinositol-3-Kinase Inhibitor” (J Med Chem, 2022)
pIC50: −log10 of the molar value. Values after ≈ are worked out from the molar mass of the structure shown. Active and inactive are the calls of the source. No cut-off for these calls is given here.

Legend:
[1] = Dose normalized AUC in OF1 mouse plasma at 10 mg/kg, po measured upto 24 hrs by LC-MS/MS analysis; type: ADME, organism-based; details: in vivo
[2] = Inhibition of wild type PI3K in human Hs-578T cells assessed as reduction in phosphorylation of AKT at Ser473 residue by Western blot analysis; type: cell-based
[3] = Dose normalized Cmax in Sprague-Dawley rat at 30 mg/kg, po measured upto 24 hrs by LC-MS/MS analysis; type: ADME, organism-based; details: in vivo
[4] = Dose normalized AUC(0 to Tlast) in athymic nude mouse xenografted with rat Rat1 cells expressing myr-p110alpha at 20 mg/kg, po measured after 8 days by LC-MS/MS analysis; type: ADME, organism-based; details: in vivo, 192 h, time 8 day
[5] = Tlast in athymic nude mouse xenografted with rat Rat1 cells expressing myr-p110alpha at 10 mg/kg, po measured after 8 days by LC-MS/MS analysis; type: ADME, organism-based; details: in vivo, 192 h, time 8 day
[6] = Dose normalized AUC(0 to Tlast) in athymic nude mouse xenografted with rat Rat1 cells expressing myr-p110alpha at 3 mg/kg, po measured after 8 days by LC-MS/MS analysis; type: ADME, organism-based; details: in vivo, 192 h, time 8 day
[7] = In vivo Inhibition of AKT phosphorylation at Ser473 residue in athymic nude mouse xenografted with rat Rat1-myr-p110alpha cells at 3 mg/kg, po qd measured after 1 hr; type: functional
[8] = Minimal apparent permeability across apical to basolateral side in human Caco-2 cells at 0.25 to 30 uM measured after 120 mins by LC-MS/MS analysis; type: ADME, cell-based; details: dose 0.25-30 µM
[9] = In vivo Inhibition of AKT phosphorylation at Ser473 residue in plasma of athymic nude mouse xenografted with rat Rat1 cells expressing myr-p110alpha; type: functional, organism-based
[10] = Oral bioavailability in OF1 mouse plasma at 10 mg/kg measured upto 24 hrs by LC-MS/MS analysis; type: ADME, organism-based
[11] = Oral bioavailability in Sprague-Dawley rat at 21.5 mg/kg using hydroxypropyl methylcellulose amorphous solid dispersion form of sample; type: ADME, organism-based; details: in vivo
[12] = Clast in athymic nude mouse xenografted with rat Rat1 cells expressing myr-p110alpha at 10 mg/kg, po measured after 8 days by LC-MS/MS analysis; type: ADME, organism-based; details: in vivo, time 8 day, read-out: Clast
[13] = Inhibition of PI3K PTEN mutant in human HCC70 cells assessed as reduction in phosphorylation of AKT at Ser473 residue by Western blot analysis; type: cell-based
[14] = Effect on blood glucose level in athymic nude mouse xenografted with rat Rat1 cells expressing myr-p110alpha at 3 to 20 mg/kg, po qd measured upto 14 hrs by glucometer analysis; type: toxicity, organism-based; details: in vivo, dose 3-20 mg/kg
Mus musculus = experiment: In vivo Inhibition of AKT phosphorylation at Ser473 residue in athymic nude mouse xenografted with rat Rat1-myr-p110alpha cells at 10 mg/kg, po qd measured after 1 to 4 hrs; type: functional, organism-based; details: time 1-4 hrs
Rat1 [15] = experiment: Antitumor activity at rat Rat1 cells expressing myr-p110alpha xenografted in athymic nude mouse assessed as T/C ratio at 20 mg/kg, po bid measured after 15 to 24 days; type: functional; details: time 15-24 day
[16] = Oral bioavailability in Sprague-Dawley rat at 20 mg/kg using crystalline form of sample; type: ADME, organism-based; details: in vivo
[17] = Effect on blood glucose level in athymic nude mouse xenografted with rat Rat1 cells expressing myr-p110alpha assessed as fold increase at 40 mg/kg, po bid measured for 2 to 10 hrs by glucometer analysis; type: toxicity, organism-based; details: in vivo, time 2-10 hrs
Rat1 [18] = experiment: Antitumor activity at rat Rat1 cells expressing myr-p110alpha xenografted in athymic nude mouse assessed as T/C ratio at 10 mg/kg, po qd measured after 14 to 22 days; type: functional; details: time 14-22 day
[19] = Dose normalized AUC in Sprague-Dawley rat at 30 mg/kg, po measured upto 24 hrs by LC-MS/MS analysis; type: ADME, organism-based; details: in vivo
[20] = Cmax in athymic nude mouse xenografted with rat Rat1 cells expressing myr-p110alpha at 3 mg/kg, po measured after 8 days by LC-MS/MS analysis; type: ADME, organism-based; design: time 8 day, dose 3 mg/kg, route po; details: in vivo
[21] = Inhibition of PI3K PTEN mutant in human HCC1937 cells assessed as reduction in phosphorylation of AKT at Ser473 residue by Western blot analysis; type: cell-based
[22] = Effect on plasma insulin level in athymic nude mouse xenografted with rat Rat1 cells expressing myr-p110alpha at 3 mg/kg, po qd measured upto 14 hrs by glucometer analysis; type: toxicity, organism-based; details: in vivo
[23] = Tmax in Sprague-Dawley rat at 3 mg/kg, po measured upto 24 hrs by LC-MS/MS analysis; type: ADME, organism-based; details: in vivo
[24] = Solubility of compound in FaSSIF at pH 6.5 measured upto 120 mins by HPLC analysis; type: physicochemical
[25] = Cmax in athymic nude mouse xenografted with rat Rat1 cells expressing myr-p110alpha at 40 mg/kg, po measured after 8 days by LC-MS/MS analysis; type: ADME, organism-based; design: dose 40 mg/kg, time 8 day, route po; details: in vivo
[26] = Inhibition of PI3K PTEN mutant in human BT-549 cells assessed as reduction in phosphorylation of AKT at Ser473 residue by Western blot analysis; type: cell-based
[27] = Toxicity in athymic nude mouse xenografted with rat Rat1 cells expressing myr-p110alpha assessed as decrease in body weight at 40 mg/kg, po bid measured after 9 days; type: organism-based; details: in vivo, 216 h, time 9 day
[28] = molecular target: Phosphatidylinositol 4,5-bisphosphate 3-kinase catalytic subunit beta isoform (Homo sapiens, UniProt P42338); experiment: Inhibition of PI3Kbeta (unknown origin) using L-alpha-phosphatidylinositol as substrate in presence of ATP by Kinase Glo luminescence assay
[29] = Cmax in beagle dog at 0.3 mg/kg,po or 0.1 mg/kg,iv measured upto 24 hrs by LC-MS/MS analysis; type: ADME, organism-based, Canis lupus familiaris; design: dose 0.3 mg/kg, time < 24 hrs, route po; details: in vivo
[30] = Brain to blood ratio in OF1 mouse at 1 mg/kg, iv measured at 1 hr post dose by LC-MS/MS analysis; type: ADME, organism-based; details: brain and blood, read-out: BBR
[31] = Dose normalized Cmax in Sprague-Dawley rat at 100 mg/kg, po measured upto 24 hrs by LC-MS/MS analysis; type: ADME, organism-based; details: in vivo
[32] = Clast in athymic nude mouse xenografted with rat Rat1 cells expressing myr-p110alpha at 3 mg/kg, po measured after 8 days by LC-MS/MS analysis; type: ADME, organism-based; details: in vivo, time 8 day, read-out: Clast
[33] = Drug concentration in OF1 mouse blood at 1 mg/kg, iv measured at 1 hr post dose by LC-MS/MS analysis; type: ADME, organism-based; details: whole blood, read-out: Ct
[34] = Volume of distribution at steady state in OF1 mouse at 10 mg/kg,po or 3 mg/kg,iv measured upto 24 hrs by LC-MS/MS analysis; type: ADME, organism-based; details: in vivo
[35] = Volume of distribution at steady state in beagle dog at 0.3 mg/kg,po or 0.1 mg/kg,iv measured upto 24 hrs by LC-MS/MS analysis; type: ADME, organism-based, Canis lupus familiaris; details: in vivo
[36] = Inhibition of PI3K PTEN mutant in human HCC38 cells assessed as reduction in phosphorylation of AKT at Ser473 residue by Western blot analysis; type: cell-based

Chain of Phosphatidylinositol 4,5-bisphosphate 3-kinase catalytic subunit beta isoform (P42338 whole entry, canonical isoform): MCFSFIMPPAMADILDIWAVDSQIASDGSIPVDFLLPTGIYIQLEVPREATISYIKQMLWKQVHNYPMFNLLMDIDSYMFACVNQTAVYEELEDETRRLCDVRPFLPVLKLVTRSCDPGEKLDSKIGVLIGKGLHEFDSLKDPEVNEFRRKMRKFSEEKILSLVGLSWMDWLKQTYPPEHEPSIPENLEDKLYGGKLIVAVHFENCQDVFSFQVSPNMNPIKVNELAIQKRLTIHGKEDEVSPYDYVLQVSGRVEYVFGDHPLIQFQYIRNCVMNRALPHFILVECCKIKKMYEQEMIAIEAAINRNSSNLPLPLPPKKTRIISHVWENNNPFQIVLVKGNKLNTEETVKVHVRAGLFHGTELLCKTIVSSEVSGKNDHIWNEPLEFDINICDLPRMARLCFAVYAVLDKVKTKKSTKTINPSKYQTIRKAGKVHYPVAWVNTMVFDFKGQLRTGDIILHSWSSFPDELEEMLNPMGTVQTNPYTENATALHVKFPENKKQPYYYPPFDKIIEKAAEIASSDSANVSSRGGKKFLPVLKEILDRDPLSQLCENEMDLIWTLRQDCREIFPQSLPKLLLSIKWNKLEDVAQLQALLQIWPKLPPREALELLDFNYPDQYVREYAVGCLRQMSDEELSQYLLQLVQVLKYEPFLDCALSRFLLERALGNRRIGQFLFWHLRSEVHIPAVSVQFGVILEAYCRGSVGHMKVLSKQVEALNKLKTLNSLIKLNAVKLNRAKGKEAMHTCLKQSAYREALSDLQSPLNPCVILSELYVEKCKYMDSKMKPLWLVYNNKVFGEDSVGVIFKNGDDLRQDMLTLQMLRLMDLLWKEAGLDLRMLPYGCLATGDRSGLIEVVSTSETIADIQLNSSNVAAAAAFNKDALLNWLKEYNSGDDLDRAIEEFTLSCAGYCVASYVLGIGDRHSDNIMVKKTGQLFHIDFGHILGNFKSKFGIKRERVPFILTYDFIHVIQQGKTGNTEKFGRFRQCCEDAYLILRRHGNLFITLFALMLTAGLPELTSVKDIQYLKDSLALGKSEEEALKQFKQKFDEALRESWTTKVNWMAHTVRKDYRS

C[C@H]1OC(=O)N(c2nc(-c3cnc(N)nc3C(F)(F)F)cc(N3CCOCC3)n2)[C@H]1CO
AUC/dose [1]: 1738 nM·h
pIC50 [2]: 7.57
Cmax/dose [3]: 41 nM
AUC/dose [4]: 1.28 µM·h
Tlast [5]: 14 h
AUC/dose [6]: 1.82 µM·h
inhibition in vivo at 3 mg/kg [7]: 80%
Papp A→B at 2 h, up to 30 µM [8]: 2.5 ×10⁻⁶ cm/s
IC80 [9]: 800 nM
pIC50 ([9]; Mus musculus): 6.70
bioavailability [10]: 49%
bioavailability [11]: 100%
concentration at 192 h [12]: 140 nM
pIC50 [13]: 7.25
Activity [14]: Non-Toxic
inhibition (Mus musculus): Active
T/C (Rat1 [15]): -0.8
bioavailability [16]: 20%
fold change (FC) [17]: 2
T/C (Rat1 [18]): 0.14
AUC/dose [19]: 913 nM·h
Cmax [20]: 1480 nM
pIC50 [21]: 6.60
Activity [22]: Non-Toxic
Tmax [23]: 30 min
solubility at 2 h [24]: 31 µM (≈ 14.1 µg/mL)
Cmax [25]: 8950 nM
pIC50 [26]: 7.00
Activity [27]: Toxic
pIC50 [28]: 8.08
Cmax [29]: 1120 nM
Kp at 1 h [30]: 0.05
Cmax/dose [31]: 22 nM
concentration at 192 h [32]: 3 nM
concentration at 1 h [33]: 630 nM
Vdss [34]: 2 L/kg
Vdss [35]: 1.5 L/kg
pIC50 [36]: 7.06
